From ChEMBL document CHEMBL1201862, “PubChem BioAssay data set” (2004)
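Step 1: Grow cells in 96-well plates. Step 2: Expose to compound for 48 hours at 5 concentrations. Step 3: Interpolate endpoints linearly; if unreached, use highest concentration. The concentration for 50% growth inhibition is given as GI50.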 The source made the active and inactive calls. No stated cut-off is given here; in the data, active = GI50 up to about 1.1 µM and inactive = higher.

Key:
Test in all cases: growth of human tumour cells (NCI), 48 h
SF-295 = system: SF-295
CCRF-CEM = system: CCRF-CEM
SF-268 = system: SF-268
OVCAR-3 = system: OVCAR-3
SF-539 = system: SF-539
SN12C = system: SN12C
HCT-116 = system: HCT-116
SNB-19 = system: SNB-19
XF498 = system: XF498
ACHN = system: ACHN
NCI-H460 = system: NCI-H460
SR = system: SR
SW-620 = system: SW-620
HOP-62 = system: HOP-62
DMS-114 = system: DMS-114
NCI-H522 = system: NCI-H522
KM12 = system: KM12
UACC-257 = system: UACC-257
A549 = system: A549
HT-29 = system: HT-29
HCC 2998 = system: HCC 2998
NCI-H226 = system: NCI-H226
786-0 = system: 786-0
SK-MEL-28 = system: SK-MEL-28
RPMI-8226 = system: RPMI-8226
COLO 205 = system: COLO 205
MOLT-4 = system: MOLT-4
NCI-H23 = system: NCI-H23
OVCAR-8 = system: OVCAR-8
HCT-15 = system: HCT-15
DMS-273 = system: DMS-273
M14 = system: M14
U-251 = system: U-251
Malme-3M = system: Malme-3M
SK-MEL-5 = system: SK-MEL-5
IGROV-1 = system: IGROV-1
KM-20L2 = system: KM-20L2
HL-60 = system: HL-60
K562 = system: K562
LOX IMVI = system: LOX IMVI
LXFL 529 = system: LXFL 529
EKVX = system: EKVX
SK-OV-3 = system: SK-OV-3
DLD-1 = system: DLD-1
OVCAR-4 = system: OVCAR-4
HOP-92 = system: HOP-92
SK-MEL-2 = system: SK-MEL-2
M19-MEL = system: M19-MEL
SNB-78 = system: SNB-78
TK-10 = system: TK-10
UACC-62 = system: UACC-62
UO-31 = system: UO-31
OVCAR-5 = system: OVCAR-5
CAKI-1 = system: CAKI-1
SNB-75 = system: SNB-75
A498 = system: A498
RXF 393 = system: RXF 393

ClC1=C(Cl)C(Cl)(Cl)c2c3c(c4c(c21)C(Cl)(Cl)C(Cl)=C4Cl)C(Cl)(Cl)C(Cl)=C3Cl
GI50 (SF-295): > 100 µM (inactive)
GI50 (CCRF-CEM): > 100 µM (inactive)
GI50 (SF-268): > 100 µM (inactive)
GI50 (OVCAR-3): > 100 µM (inactive)
GI50 (SF-539): > 100 µM (inactive)
GI50 (SN12C): > 100 µM (inactive)
GI50 (HCT-116): > 100 µM (inactive)
GI50 (SNB-19): > 100 µM (inactive)
GI50 (XF498): > 100 µM (inactive)
GI50 (ACHN): > 100 µM (inactive)
GI50 (NCI-H460): > 100 µM (inactive)
GI50 (SR): > 100 µM (inactive)
GI50 (SW-620): > 100 µM (inactive)
GI50 (HOP-62): > 100 µM (inactive)
GI50 (DMS-114): > 100 µM (inactive)
GI50 (NCI-H522): 33.1 µM (inactive)
GI50 (KM12): > 100 µM (inactive)
GI50 (UACC-257): > 100 µM (inactive)
GI50 (A549): > 100 µM (inactive)
GI50 (HT-29): > 100 µM (inactive)
GI50 (HCC 2998): > 100 µM (inactive)
GI50 (NCI-H226): > 100 µM (inactive)
GI50 (786-0): > 100 µM (inactive)
GI50 (SK-MEL-28): > 100 µM (inactive)
GI50 (RPMI-8226): > 100 µM (inactive)
GI50 (COLO 205): > 100 µM (inactive)
GI50 (MOLT-4): > 100 µM (inactive)
GI50 (NCI-H23): > 100 µM (inactive)
GI50 (OVCAR-8): > 100 µM (inactive)
GI50 (HCT-15): > 100 µM
GI50 (DMS-273): > 100 µM (inactive)
GI50 (M14): > 100 µM (inactive)
GI50 (U-251): > 100 µM (inactive)
GI50 (Malme-3M): > 100 µM (inactive)
GI50 (SK-MEL-5): > 100 µM (inactive)
GI50 (IGROV-1): > 100 µM (inactive)
GI50 (KM-20L2): > 100 µM (inactive)
GI50 (HL-60): > 100 µM (inactive)
GI50 (K562): > 100 µM (inactive)
GI50 (LOX IMVI): > 100 µM (inactive)
GI50 (LXFL 529): > 100 µM (inactive)
GI50 (EKVX): > 100 µM (inactive)
GI50 (SK-OV-3): > 100 µM (inactive)

CC(=O)NC(CCCCNC(=O)OCc1ccccc1)C(=O)NCc1ccccc1 (stereo not drawn)
GI50 (DLD-1): > 100 µM (inactive)
GI50 (SF-295): > 100 µM (inactive)
GI50 (CCRF-CEM): > 100 µM (inactive)
GI50 (SF-268): > 100 µM (inactive)
GI50 (OVCAR-3): > 100 µM (inactive)
GI50 (SF-539): > 100 µM (inactive)
GI50 (OVCAR-4): > 100 µM (inactive)
GI50 (SN12C): > 100 µM (inactive)
GI50 (HCT-116): > 100 µM (inactive)
GI50 (SNB-19): > 100 µM (inactive)
GI50 (XF498): > 100 µM (inactive)
GI50 (ACHN): > 100 µM (inactive)
GI50 (NCI-H460): > 100 µM (inactive)
GI50 (HOP-92): > 100 µM (inactive)
GI50 (SW-620): > 100 µM (inactive)
GI50 (HOP-62): > 100 µM (inactive)
GI50 (DMS-114): > 100 µM (inactive)
GI50 (NCI-H522): > 100 µM (inactive)
GI50 (KM12): > 100 µM (inactive)
GI50 (SK-MEL-2): > 100 µM (inactive)
GI50 (UACC-257): > 100 µM (inactive)
GI50 (M19-MEL): > 100 µM (inactive)
GI50 (A549): > 100 µM (inactive)
GI50 (HT-29): > 100 µM (inactive)
GI50 (HCC 2998): > 100 µM (inactive)
GI50 (NCI-H226): > 100 µM (inactive)
GI50 (786-0): > 100 µM (inactive)
GI50 (SNB-78): 88.9 µM (inactive)
GI50 (SK-MEL-28): > 100 µM (inactive)
GI50 (RPMI-8226): > 100 µM (inactive)
GI50 (COLO 205): > 100 µM (inactive)
GI50 (MOLT-4): > 100 µM (inactive)
GI50 (NCI-H23): > 100 µM (inactive)
GI50 (TK-10): > 100 µM (inactive)
GI50 (UACC-62): > 100 µM (inactive)
GI50 (UO-31): > 100 µM (inactive)
GI50 (OVCAR-8): > 100 µM (inactive)
GI50 (HCT-15): > 100 µM
GI50 (OVCAR-5): > 100 µM (inactive)
GI50 (DMS-273): > 100 µM (inactive)
GI50 (CAKI-1): > 100 µM (inactive)
GI50 (M14): > 100 µM (inactive)
GI50 (U-251): > 100 µM (inactive)
GI50 (Malme-3M): > 100 µM (inactive)
GI50 (SK-MEL-5): > 100 µM (inactive)
GI50 (SNB-75): 31.7 µM (inactive)
GI50 (A498): > 100 µM (inactive)
GI50 (IGROV-1): > 100 µM (inactive)
GI50 (KM-20L2): > 100 µM (inactive)
GI50 (K562): > 100 µM (inactive)
GI50 (LOX IMVI): > 100 µM (inactive)
GI50 (LXFL 529): > 100 µM (inactive)
GI50 (RXF 393): > 100 µM (inactive)
GI50 (EKVX): > 100 µM (inactive)
GI50 (SK-OV-3): > 100 µM (inactive)
